For test [1], the system named is nerve cell prepared from cerebral cortex of fetus of SD rat. Nature of the test: Measurement of nerve cell death suppressive activity. The test is classed as cell-based. As to conditions: rat cerebral cortex nerve cells, LY294002 50 μM final concentration, 24 hr, viable cell number by Cell Titer Glo; read-out: IC50 value (concentration of the test compound needed for 50% inhibition of nerve cell death). As for the experimental part: The cerebral cortex was taken from fetus of TP-14 pregnant SD rat (CLEA Japan, Inc.), and nerve cell was prepared using nerve cell culture system (SUMITOMO BAKELITE). The cerebral cortex was placed in enzymatic solution of cell dispersion solution kit (SUMITOMO BAKELITE), and incubated at 37° C. for 30 min. The cells were suspended by pipetting, and collected by centrifugation at 1000 rpm for 5 min. The supernatant was removed, and cell dispersion solution (SUMITOMO BAKELITE) was added. The cells were suspended by pipetting. The cell suspension was placed on removing solution (SUMITOMO BAKELITE), and the cells were collected by centrifugation at 1000 rpm for 5 min. The supernatant was removed, and the cells were suspended in nerve cell culture medium (SUMITOMO BAKELITE). 100 μl of the suspension was seeded on a poly D lysine•laminin 96 well plate (Becton, Dickinson and Company) at 1×10^5 cells/well. Then, the plate was cultured in a carbon dioxide gas incubator at 37° C. for 4 days. A test compound (50 μl) was added on the 96 well plate, and 50 μL/well of LY294002 was added at 50 μM of the final concentration. Then, the plate was cultured in a carbon dioxide gas incubator for 24 hr. The medium (100 μl) was sampled, and 100 μl of Cell Titer Glo solution (Promega) was added to count the viable cell number. […]
Background: In ATP-based viability assays light output follows the ATP content of the culture.

Test [2] has as its target T1, recombinant GSK3β enzyme (human GSK3β) (Homo sapiens, UniProt P49841).
T1 construct: FLAG (N); made in house; host or cells: Sf-21 insect cells, recombinant baculovirus (pFASTBAC1 / BAC-TO-BAC)
The experiment in a line: Measurement of GSK3β inhibitory activity. As to conditions: glycogen synthase peptide substrate, Kinase Glo luminescence, read-out: IC50 (concentration of test compound needed for 50% inhibition of luminescent intensity), GSK3β inhibitory activity. The test is classed as biochemical. In a few lines: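 FLAG-purified human GSK3β expressed in baculovirus-infected Sf-21 cells; reaction with 2.5 μM ATP (stock solution) at room temperature, 30 min. Residual ATP measured by Kinase-Glo luminescence; IC50 as concentration inhibiting 50% of luminescent intensity.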
In general terms: In Kinase-Glo more light means more ATP remaining.

Test [3] relates to H4IIE-C3 cells. The experiment in a line: Measurement of sugar release suppressive action using cultured hepatocyte. The following applies: Rattus norvegicus, H4IIEC3, 3 h, test compound 10 μM, Dexamethasone 500 nM and 8CPT-cAMP 0.1 mM, GSK3β inhibitor free group is 100%, read-out: sugar release suppressive activity (released glucose content, relative value). The test is classed as cell-based. As for the experimental part:
H4IIE-C3 cells (from rat liver) were seeded on 24 well or 96 well collagen coated plate (manufactured by Falcon), and cultured in Dulbecco's Modified Eagle Medium (DMEM: manufactured by GIBCO) containing 10% FBS, 25 mM Glucose until the cells became sub-confluent. Then, the cells were starvation treated with DMEM containing 0% FBS and 5.6 mM glucose. The medium was exchanged to DMEM containing test compound adjusted to 10 μM and sugar production stimulant (Dexamethasone (500 nM), 8CPT-cAMP (0.1 mM)), and the cells were pretreated for 5 hr. After washing with PBS, the cells were cultured in Phenol Red-free, Glucose-free DMEM containing the test compound and sugar production stimulant for 3 hr, and the glucose content released in the medium was measured. A glucose measurement kit (A-22189) manufactured by Molecular Probes was used for the glucose measurement. The sugar release suppressive activity is shown in a relative value when the released glucose content of a GSK3β inhibitor free group is 100%.

T1 sequence (P49841 whole entry): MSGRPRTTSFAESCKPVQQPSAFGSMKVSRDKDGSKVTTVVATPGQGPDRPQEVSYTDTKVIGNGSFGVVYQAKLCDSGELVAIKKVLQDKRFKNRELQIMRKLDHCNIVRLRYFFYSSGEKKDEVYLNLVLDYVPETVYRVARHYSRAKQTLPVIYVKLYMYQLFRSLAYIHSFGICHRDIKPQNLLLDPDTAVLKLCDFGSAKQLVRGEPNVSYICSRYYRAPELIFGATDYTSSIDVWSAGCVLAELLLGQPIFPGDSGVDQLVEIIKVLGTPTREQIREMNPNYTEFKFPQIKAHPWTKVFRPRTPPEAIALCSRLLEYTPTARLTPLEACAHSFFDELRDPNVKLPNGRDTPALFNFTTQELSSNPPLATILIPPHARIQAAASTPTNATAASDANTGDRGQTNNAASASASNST

For the molecule `O=C(Nc1c[nH]nc1C(=O)NC1CCCC1)c1cnccn1` [Example 79, N-{3-[(cyclopentylamino)carbonyl]-1H-pyrazol-4-yl}pyrazine-2-carboxamide], the IC50 in test [1] worked out at 70 nM.
The same measure, in the same setting: for `O=C(Nc1c[nH]nc1C(=O)Nc1ccccc1)c1cnccn1` [Example 98, N-{3-[(phenylamino)carbonyl]-1H-pyrazol-4-yl}pyrazine-2-carboxamide] the value was 440 nM.
As for `Cc1cccc(C(=O)Nc2c[nH]nc2C(=O)NCCC#N)n1` [Example 387, N-(3-(((2-cyanoethyl)amino)carbonyl)-1H-pyrazol-4-yl)-6-methylpyridine-2-carboxamide], in test [2], the IC50 is under 100 nM. Also, in test [3], the activity at 10 µM was determined as 69%.
Turning to `N#CCCNC(=O)c1n[nH]cc1NC(=O)c1ccco1` [Example 412, N-(2-cyanoethyl)-4-(2-furoylamino)-1H-pyrazole-3-carboxamide], the IC50 in test [2] was under 100 nM. In addition, the activity at 10 µM in test [3] was 74%.
The like results for `Cc1cccc(C(=O)Nc2c[nH]nc2C(=O)NCCC#N)c1` [Example 413, N-(2-cyanoethyl)-4-(3-methylbenzoylamino)-1H-pyrazole-3-carboxamide] were, in that order, under 100 nM and 64%.
The matching figures for `N#CCCNC(=O)c1n[nH]cc1NC(=O)c1cccs1` [Example 416, N-(2-cyanoethyl)-4-(2-thienylcarbonylamino)-1H-pyrazole-3-carboxamide]: under 100 nM and 62%.
The matching figures for `N#CCCNC(=O)c1n[nH]cc1NC(=O)c1ccccc1` [Example 420, 4-(benzoylamino)-N-(2-cyanoethyl)-1H-pyrazole-3-carboxamide]: under 100 nM and 62%.
Consider `Cc1cccc(C(=O)Nc2c[nH]nc2C(=O)NCCOC(C)C)n1` [Example 426, N-(3-(((2-isopropoxyethyl)amino)carbonyl)-1H-pyrazol-4-yl)-6-methylpyridine-2-carboxamide], for which the IC50 in test [2] is under 100 nM. Besides, the activity at 10 µM in test [3] is 55%.
Consider `Cc1cccc(C(=O)Nc2c[nH]nc2C(=O)NCCCOC(C)C)n1` [Example 430, N-(3-(((3-isopropoxypropyl)amino)carbonyl)-1H-pyrazol-4-yl)-6-methylpyridine-2-carboxamide], for which the activity at 10 µM in test [3] worked out at 76%.
The same measure, in the same setting: for `CC(C)(C)OCCCNC(=O)c1n[nH]cc1NC(=O)c1ccccn1` [Example 455, N-(3-(((3-tert-butoxypropyl)amino)carbonyl)-1H-pyrazol-4-yl)pyridine-2-carboxamide] the value was 79%; for `CC(C)(CO)CNC(=O)c1n[nH]cc1NC(=O)c1ccccn1` [Example 470, N-(3-(((3-hydroxy-2,2-dimethylpropyl)amino)carbonyl)-1H-pyrazol-4-yl)pyridine-2-carboxamide], 75%.
Same read-out and setting: next, `Cc1ccc(C(=O)Nc2c[nH]nc2C(=O)NCC(F)(F)F)cn1` [Example 480, 6-methyl-N-(3-(((2,2,2-trifluoroethyl)amino)carbonyl)-1H-pyrazol-4-yl)pyridine-3-carboxamide]: 69%.
With `O=C(Nc1ccccc1)c1n[nH]cc1NC(=O)c1c[nH]c2ccccc12` [compound 097], the IC50 in test [2] is under 100 nM.
Take `O=C(Nc1c[nH]nc1C(=O)Nc1ccccc1)c1cnccn1` [compound 098]: in test [2], the IC50 was under 100 nM.
On the same count and under the same terms, next, `O=C(CC1CCCC1)Nc1c[nH]nc1C(=O)NCc1ccccc1` [compound 099]: 102 nM.
In the case of `O=C(Nc1c[nH]nc1C(=O)NCc1ccco1)c1ccccc1` [compound 152], the IC50 in test [2] is under 100 nM.
With `O=C(Nc1c[nH]nc1C(=O)NCc1ccco1)c1ccc(C(F)(F)F)cc1` [compound 154], in test [2], the IC50 was 271 nM.
The same measure, in the same setting: next, `COc1ccc(C(=O)Nc2c[nH]nc2C(=O)NCc2ccco2)cc1` [compound 155]: under 100 nM; `O=C(Nc1c[nH]nc1C(=O)NCc1ccco1)c1ccc(F)cc1F` [compound 156]: under 100 nM.
The same measure, in the same setting: for `O=C(Nc1c[nH]nc1C(=O)NCc1ccco1)c1ccc(Oc2ccccc2)cc1` [compound 157] the value was 140 nM.
Same read-out and setting: next, `CC(=O)Nc1cccc(C(=O)Nc2c[nH]nc2C(=O)NCc2ccco2)c1` [compound 159]: under 100 nM; `O=C(Nc1c[nH]nc1C(=O)NCc1ccco1)c1ccc(OC(F)(F)F)cc1` [compound 160]: 194 nM.
With `O=C(Nc1c[nH]nc1C(=O)NCc1ccco1)c1ccc2[nH]ccc2c1` [compound 161], the IC50 in test [2] is under 100 nM.
Still for that read-out and setting: for `O=C(Nc1c[nH]nc1C(=O)NCc1ccco1)c1cnccn1` [compound 162] the value was under 100 nM; for `CC(C)NC(=O)c1n[nH]cc1NS(=O)(=O)C[C@]12CCC(CC1=O)C2(C)C` [compound 197], 109 nM; for `CS(=O)(=O)Nc1c[nH]nc1C(=O)NC1CCCC1` [compound 227, N-cyclopentyl-4-methanesulfonylamino-1H-pyrzole-3-carboxamide], 274 nM.
On to `CC1(C)C2CC[C@@]1(CS(=O)(=O)Nc1c[nH]nc1C(=O)NC1CCCC1)C(=O)C2` [compound 240], for which the IC50 in test [2] was found to be 208 nM.
The same measure, in the same setting: next, `CC1(C)C2CC[C@@]1(CS(=O)(=O)Nc1c[nH]nc1C(=O)NCCc1ccccc1)C(=O)C2` [compound 305]: under 100 nM.

(Values after patent US20090156582A1, “Pyrazole Compound” (priority 2005, published 2009).)
